{
  "source": "patent US9149475B2",
  "about": "“Protein kinase C inhibitors and uses thereof” (Rigel Pharmaceuticals, Inc., priority 2009, dated 2015)",
  "data": [
    {"system": "Human primary T cells", "assay": "IL-2 ELISA, human primary T cell, anti-CD3+CD28+ (whole cell assay)", "format": "cell-based", "details": "Homo sapiens, T-cell, 24 h, human primary T cells stimulated with anti-CD3 + anti-CD28, 24 hours", "procedure": "(§1) Human primary T cells were prepared as follows. Whole blood was obtained from a healthy volunteer, mixed 1:1 with PBS, layered on to Ficoll Hypaque (Amersham Pharmacia Biotech, Piscataway, N.J., Catalog #17-1440-03) in 2:1 blood/PBS:ficoll ratio and centrifuged for 30 minutes at 4° C. at 1750 rpm. The cells at the serum:ficoll interface were recovered and washed twice with 5 volumes of PBS. These freshly isolated human peripheral blood mononuclear cells were cultured in Yssel's medium containing 40 U/mL IL2 in a flask pre-coated with 1 μg/mL αCD3 and 5 μg/mL αCD28 (Anti-Human CD3, BD Pharmingen Catalog #555336, Anti-Human CD28, Beckman Coulter Catalog #IM1376). The cells were stimulated for 3-4 days, then transferred to a fresh flask and maintained in RPMI (RPMI-1640 with L-Glutamine; Mediatech, Inc., Herndon Va., cat. #10-040-CM) with 10% FBS and 40 U/mL IL-2. The primary T-cells were then washed twice with PBS to remove the IL-2.\nHuman primary T cells (100,000 cells per well) were pre-incubated with or without test compound in Yssel's medium for 1 hr at 37° C. Cells were then stimulated by transferring them to round-bottom 96-well plates pre-coated with 1 μg/ml μCD3 and 5 μg/ml μCD28. For counter assay, cells were instead stimulated by adding 8× stock solutions of PMA and ionomycin in Yssels (for final concentrations of 0.5 ng/ml PMA and 0.1 μM ionomycin, both from Calbiochem). Cells were incubated at 37° C. for 24 hours before 100 μL supernatants were harvested for quantification of IL-2 by ELISA using Human IL-2 Duoset ELISA Kit from R and D Systems, Cat. #DY202E.\nas §1, with “Human primary T cell isolation and culture: Human primary” for “Human primary”, “for 30 min at 4°” for “for 30 minutes at 4°”, “at the serum: ficoll interface were” for “at the serum:ficoll interface were”\nPrimary T cell stimulation and IL2 ELISA: Human primary T cells (100,000 cells per well) were pre-incubated with or without test compound in Yssel's medium for 1 hr at 37° C. Cells were then stimulated by transferring them to round-bottom 96-well plates pre-coated with 1 μg/ml αCD3 and 5 μg/ml αCD28. For counter assay, cells were instead stimulated by adding 8× stock solutions of PMA and ionomycin in Yssels (for final concentrations of 0.5 ng/ml PMA and 0.1 μM ionomycin, both from Calbiochem). Cells were incubated at 37° C. for 24 hours before 100 μL supernatants were harvested for quantification of IL-2 by ELISA using Human IL-2 Duoset ELISA Kit from R and D Systems, Cat. #DY202E.", "units": {"IC50": "µM"}, "values": [
      {"smiles": "Cc1ccn(-c2cccc(Nc3ncc(F)c(NC4CC(C)(C)N(C)C(C)(C)C4)n3)c2)n1", "note": "[Compound I-1, 5-fluoro-N2-(3-(3-methyl-1H-pyrazol-1-yl)phenyl)-N4-(1,2,2,6,6-pentamethylpiperidin-4-yl)pyrimidine-2,4-diamine]", "IC50": "> 1"},
      {"smiles": "CN1C(C)(C)CC(Nc2nc(Nc3cccc(-n4ccc(C(F)(F)F)n4)c3)ncc2F)CC1(C)C", "note": "[Compound I-2, 5-fluoro-N2-(3-(3-(trifluoromethyl)-1H-pyrazol-1-yl)phenyl)-N4-(1,2,2,6,6-pentamethylpiperidin-4-yl)pyrimidine-2,4-diamine]", "IC50": "> 1"},
      {"smiles": "CC1(C)CC(Nc2nc(Nc3cccc(-n4ccc(C(F)(F)F)n4)c3)ncc2F)CC(C)(C)N1", "note": "[Compound I-3, 5-fluoro-N2-(3-(3-(trifluoromethyl)-1H-pyrazol-1-yl)phenyl)-N4-(2,2,6,6-tetramethylpiperidin-4-yl)pyrimidine-2,4-diamine]", "IC50": "> 1"},
      {"smiles": "Cc1ccc(C)n1-c1cc(Nc2ncc(F)c(NC3CC(C)(C)N(C)C(C)(C)C3)n2)ccc1OC(F)F", "note": "[Compound I-4, N2-(4-(difluoromethoxy)-3-(2,5-dimethyl-1H-pyrrol-1-yl)phenyl)-5-fluoro-N4-(1,2,2,6,6-pentamethylpiperidin-4-yl)pyrimidine-2,4-diamine]", "IC50": "0.25 to 0.5"},
      {"smiles": "Cc1ccc(C)n1-c1cc(Nc2ncc(F)c(NC3CC(C)(C)NC(C)(C)C3)n2)ccc1OC(F)F", "note": "[Compound I-5, N2-(4-(difluoromethoxy)-3-(2,5-dimethyl-1H-pyrrol-1-yl)phenyl)-5-fluoro-N4-(2,2,6,6-tetramethylpiperidin-4-yl)pyrimidine-2,4-diamine]", "IC50": "0.5 to 1"},
      {"smiles": "CN1C(C)(C)CC(Nc2nc(Nc3cc(F)cc(OCCn4ccnn4)c3)ncc2F)CC1(C)C", "note": "[Compound I-6, N2-(3-(2-(1H-1,2,3-triazol-1-yl)ethoxy)-5-fluorophenyl)-5-fluoro-N4-(1,2,2,6,6-pentamethylpiperidin-4-yl)pyrimidine-2,4-diamine]", "IC50": "0.5 to 1"},
      {"smiles": "Cc1ccn(-c2cccc(Nc3ncc(F)c(NC4CC(C)(C)NC(C)(C)C4)n3)c2)n1", "note": "[Compound I-7, 5-fluoro-N2-(3-(3-methyl-1H-pyrazol-1-yl)phenyl)-N4-(2,2,6,6-tetramethylpiperidin-4-yl)pyrimidine-2,4-diamine]", "IC50": "> 1"},
      {"smiles": "CC1(C)CC(Nc2nc(Nc3cc(F)cc(OCCn4ccnn4)c3)ncc2F)CC(C)(C)N1", "note": "[Compound I-8, N2-(3-(2-(1H-1,2,3-triazol-1-yl)ethoxy)-5-fluorophenyl)-5-fluoro-N4-(2,2,6,6-tetramethylpiperidin-4-yl)pyrimidine-2,4-diamine]", "IC50": "> 1"},
      {"smiles": "Cc1nnnn1-c1cc(Nc2ncc(F)c(NC3CC(C)(C)N(C)C(C)(C)C3)n2)ccc1F", "note": "[Compound I-9, 5-fluoro-N2-(4-fluoro-3-(5-methyl-1H-tetrazol-1-yl)phenyl)-N4-(1,2,2,6,6-pentamethylpiperidin-4-yl)pyrimidine-2,4-diamine]", "IC50": "< 0.25"},
      {"smiles": "Cc1nnnn1-c1cc(Nc2ncc(F)c(NC3CC(C)(C)NC(C)(C)C3)n2)ccc1F", "note": "[Compound I-10, 5-fluoro-N2-(4-fluoro-3-(5-methyl-1H-tetrazol-1-yl)phenyl)-N4-(2,2,6,6-tetramethylpiperidin-4-yl)pyrimidine-2,4-diamine]", "IC50": "0.25 to 0.5"},
      {"smiles": "Cc1nnnn1-c1cc(Nc2ncc(F)c(NC3CC(C)(C)N(CC4CC4)C(C)(C)C3)n2)ccc1F", "note": "[Compound I-11, N4-(1-(cyclopropylmethyl)-2,2,6,6-tetramethylpiperidin-4-yl)-5-fluoro-N2-(4-fluoro-3-(5-methyl-1H-tetrazol-1-yl)phenyl)pyrimidine-2,4-diamine]", "IC50": "> 1"},
      {"smiles": "CN1C(C)(C)CC(Nc2nc(Nc3cccc(-n4cncn4)c3)ncc2F)CC1(C)C", "note": "[Compound I-12, N2-(3-(1H-1,2,4-triazol-1-yl)phenyl)-5-fluoro-N4-(1,2,2,6,6-pentamethylpiperidin-4-yl)pyrimidine-2,4-diamine]", "IC50": "0.5 to 1"}
    ]}
  ]
}
